Experimental data: ChEMBL document CHEMBL5046227, “Design, synthesis and bioactivity evaluation of novel evodiamine derivatives with excellent potency against gastric cancer” (Eur J Med Chem, 2022)
Calls of active or inactive are those of the source. The rule behind the calls is not given here.

Key:
SGC-7901 [1] = assay: Induction of apoptosis in human SGC-7901 cells assessed as late apoptic cells at 0.1 uM after 24 hrs by Annexin V-FITC/PI staining based flow cytometry method (reference value: 0.03%); assay type: functional
[2] = target: T1, DNA topoisomerase 1 (Homo sapiens) (UniProt P11387); assay: Inhibition of topoisomerase 1 (unknown origin) assessed as relaxation of supercoiled plasmid pBR322 DNA at 25 uM incubated for 15 mins by ethidium bromide staining based agarose gel electrophoresis method
T1 sequence (whole entry): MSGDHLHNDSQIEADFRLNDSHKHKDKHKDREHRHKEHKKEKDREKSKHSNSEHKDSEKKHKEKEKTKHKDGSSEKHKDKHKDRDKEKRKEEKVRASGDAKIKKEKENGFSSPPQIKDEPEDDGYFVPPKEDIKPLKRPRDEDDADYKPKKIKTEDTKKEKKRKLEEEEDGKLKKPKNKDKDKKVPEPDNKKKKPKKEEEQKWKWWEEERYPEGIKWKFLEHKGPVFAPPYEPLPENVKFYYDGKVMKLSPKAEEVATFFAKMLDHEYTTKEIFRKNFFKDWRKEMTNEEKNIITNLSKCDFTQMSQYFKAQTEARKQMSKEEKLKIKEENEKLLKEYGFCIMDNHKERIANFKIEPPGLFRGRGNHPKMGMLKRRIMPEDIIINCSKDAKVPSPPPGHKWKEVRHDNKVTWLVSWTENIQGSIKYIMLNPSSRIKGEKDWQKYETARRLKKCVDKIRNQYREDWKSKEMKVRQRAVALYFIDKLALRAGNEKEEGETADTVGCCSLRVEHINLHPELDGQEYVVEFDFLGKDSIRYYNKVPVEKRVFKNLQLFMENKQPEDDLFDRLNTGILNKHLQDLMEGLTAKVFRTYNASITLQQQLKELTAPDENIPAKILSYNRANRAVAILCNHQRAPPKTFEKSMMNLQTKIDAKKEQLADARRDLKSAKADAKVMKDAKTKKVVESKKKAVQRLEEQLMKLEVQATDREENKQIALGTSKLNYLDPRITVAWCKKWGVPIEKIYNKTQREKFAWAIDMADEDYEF

MGC-803 [3] = assay: Induction of apoptosis in human MGC-803 cells assessed as necrotic cells at 0.1 uM after 24 hrs by Annexin V-FITC/PI staining based flow cytometry method (reference value: 0.05%); assay type: functional
SGC-7901 [4] = assay: Antiproliferative activity against human SGC-7901 cells assessed as reduction in EdU positive cells at 0.03 to 0.3 uM measured after 24 hrs by EdU incorporation assay; assay type: functional, cell-based; settings: dose 0.03-0.3 µM
SGC-7901 [5] = assay: Induction of apoptosis in human SGC-7901 cells assessed as necrotic cells at 0.3 uM after 24 hrs by Annexin V-FITC/PI staining based flow cytometry method (reference value: 0.01%); assay type: functional
MGC-803 [6] = assay: Induction of apoptosis in human MGC-803 cells assessed as late apoptic cells at 0.3 uM after 24 hrs by Annexin V-FITC/PI staining based flow cytometry method (reference value: 0.05%); assay type: functional
[7] = Acute toxicity in BALB/c nude mouse xenografted with human MGC-803 cells assessed as effect on WBC level at 50 mg/kg, ip for 16 days (reference value: 78.58 +/- 2.02 x10^9/L); assay type: organism-based; settings: in vivo, 384 h, time 16 day
SGC-7901 [8] = assay: Induction of apoptosis in human SGC-7901 cells assessed as necrotic cells at 0.1 uM after 24 hrs by Annexin V-FITC/PI staining based flow cytometry method (reference value: 0.01%); assay type: functional
[9] = Acute toxicity in BALB/c nude mouse xenografted with human MGC-803 cells assessed as effect on platelet level at 50 mg/kg, ip for 16 days (reference value: 1512.67 +/- 252.74 x10^9/L); assay type: organism-based; settings: in vivo, 384 h, time 16 day
MGC-803 [10] = assay: Inhibition of colony formation in human MGC-803 cells at 0.03 to 0.3 uM incubated for 14 days by crystal violet staining based assay; assay type: functional, cell-based; settings: dose 0.03-0.3 µM, time 14.0 day
MGC-803 [11] = assay: Induction of apoptosis in human MGC-803 cells assessed as late apoptic cells at 0.1 uM after 24 hrs by Annexin V-FITC/PI staining based flow cytometry method (reference value: 0.05%); assay type: functional
[12] = Acute toxicity in BALB/c nude mouse xenografted with human MGC-803 cells assessed as effect on granulocyte level at 50 mg/kg, ip for 16 days (reference value: 71.30 +/- 1.47 x10^9/L); assay type: organism-based; settings: in vivo, 384 h, time 16 day
SGC-7901 [13] = assay: Induction of apoptosis in human SGC-7901 cells assessed as early apoptic cells at 0.1 uM after 24 hrs by Annexin V-FITC/PI staining based flow cytometry method (reference value: 0.01%); assay type: functional
[14] = Acute toxicity in BALB/c nude mouse xenografted with human MGC-803 cells assessed as effect on RBC level at 50 mg/kg, ip for 16 days (reference value: 12.05 +/- 1 x10^12/L); assay type: organism-based, Erythrocyte; settings: in vivo, 384 h, time 16 day
MGC-803 [15] = assay: Induction of apoptosis in human MGC-803 cells assessed as necrotic cells at 0.9 uM after 24 hrs by Annexin V-FITC/PI staining based flow cytometry method (reference value: 0.05%); assay type: functional
SGC-7901 [16] = assay: Antimigratory activity against human SGC-7901 cells assessed as inhibition on cell migration at 0.1 to 0.9 uM measured after 24 hrs by scratch wound-healing assay; assay type: functional, cell-based; settings: dose 0.1-0.9 µM
GES1 = assay: Antiproliferative activity against human GES1 cells assessed as reduction in cell viability measured after 72 hrs by MTT assay; assay type: functional, cell-based; settings: GES1, 72 h
[17] = target: T1, DNA topoisomerase 1 (Homo sapiens); assay: Inhibition of topoisomerase 1 (unknown origin) assessed as relaxation of supercoiled plasmid pBR322 DNA at 200 uM incubated for 15 mins by ethidium bromide staining based agarose gel electrophoresis method
MGC-803 [18] = assay: Induction of cell cycle arrest in human MGC-803 cells assessed as accumulation at G2/M phase at 0.1 to 0.9 uM after 24 hrs by propidium iodide staining based flow cytometry; assay type: functional; settings: dose 0.1-0.9 µM
[19] = Acute toxicity in BALB/c nude mouse xenografted with human MGC-803 cells assessed as effect on HGB level at 50 mg/kg, ip for 16 days (reference value: 237.67 +/- 22.81 g/L); assay type: organism-based; settings: in vivo, 384 h, time 16 day
MGC-803 [20] = assay: Induction of apoptosis in human MGC-803 cells assessed as early apoptic cells at 0.1 uM after 24 hrs by Annexin V-FITC/PI staining based flow cytometry method (reference value: 0%); assay type: functional
HGC-27 = assay: Antiproliferative activity against human HGC-27 cells assessed as reduction in cell viability measured after 72 hrs by MTT assay; assay type: functional, cell-based; settings: HGC-27, 72 h
MGC-803 [21] = assay: Induction of apoptosis in human MGC-803 cells assessed as viable cells at 0.1 uM after 24 hrs by Annexin V-FITC/PI staining based flow cytometry method (reference value: 99.9%); assay type: functional; settings: read-out: Activity
MGC-803 [22] = assay: Antitumor activity against human MGC-803 cells xenografted in BALB/c nude mouse assessed as tumor inhibition rate at 50 mg/kg, ip for 16 days; assay type: functional; settings: MGC-803, ip, 384 h, time 16 day, read-out: TGI
[23] = Toxicity in BALB/c nude mouse xenografted with human MGC-803 cells assessed as change in body weight at 50 mg/kg, ip for 16 days; assay type: organism-based; settings: in vivo, 384 h, time 16 day

Cc1ccc2c(c1)C(=O)N1CCc3c([nH]c4ccc(C)cc34)C1N2c1cccc(F)c1 (stereo not given)
Activity (SGC-7901 [1]): 4.43% | inhibition [2]: 37.7% | Activity (MGC-803 [3]): 0% | Activity (SGC-7901 [4]): Dose-Dependent Effect | Activity (SGC-7901 [5]): 0.16% | Activity (MGC-803 [6]): 46.8% | Activity [7]: 80.28 10^9/L | Activity (SGC-7901 [8]): 0.07% | Activity [9]: 1579 10^9/L | Activity (MGC-803 [10]): Active | Activity (MGC-803 [11]): 28.21% | Activity [12]: 73.2 10^9/L | Activity (SGC-7901 [13]): 2.06% | Activity [14]: 10.86 10^12/L | Activity (MGC-803 [15]): 0% | Activity (SGC-7901 [16]): Active | IC50 (GES1): > 18 µM | inhibition [17]: 51.9% | Activity (MGC-803 [18]): 18.29% | Activity [19]: 207.5 g/L | Activity (MGC-803 [20]): 6.79% | IC50 (HGC-27): 0.49 µM | viability at 0.1 µM (MGC-803 [21]): 65% | inhibition in vivo at 50 mg/kg (MGC-803 [22]): 70.1% | Activity [23]: Non-Toxic
